The values below come from paper PMC10385850, “Modified Hederagenin Derivatives Demonstrate Ex Vivo Anthelmintic Activity against Fasciola hepatica” (Pharmaceutics, 2023).

The subject of one data set is F. hepatica. The arrangement: method as in PMID 4034744. The following applies: cited from earlier work.
Data set [1] concerns F. hepatica newly excysted juveniles (NEJs), Italian strain. Description: Ex vivo screen against newly excysted juveniles (NEJs), phenotype and motility scoring. The data set is classed as cell-based, Fasciola hepatica. The following applies: 10 µM. The method, boiled down:
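Newly excysted juveniles of the Italian strain of F. hepatica were obtained by excysting metacercariae and exposed ex vivo to test compounds at 10 μM final concentration in 0.1% DMSO. Controls were 0.1% DMSO (negative) and 10 μM TCBZ in 0.1% DMSO (positive). Motility was scored from 1 (good/normal) to 5 (no movement), and ultrastructural phenotype changes were scored with an established matrix.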

For data set [2], the system named is wild strain adult F. hepatica. Description: Ex vivo motility assay on adult liver flukes (wild strain). The following applies: 40 µM. The format is cell-based, Fasciola hepatica. The method, boiled down:
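Wild-strain adult F. hepatica of unknown provenance (n = 4 per condition) were exposed ex vivo to 40 µM compound in 0.4% DMSO for 72 h. Motility was scored from 1 (normal) to 6 (no movement/dead).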

In data set [3] the test system is immature F. hepatica flukes (Italian strain). In words: Ex vivo motility assay on immature liver flukes (Italian strain), single concentration and dose response. The data set is classed as cell-based, Fasciola hepatica.
Data set [4] deals with adult F. hepatica flukes (Italian strain). In words: Ex vivo dose response motility assay on adult liver flukes (Italian strain). The following applies: for pEC50: Fasciola hepatica, adult flukes, motility. The format is cell-based, Fasciola hepatica. Here is the method:
The collection, ex vivo culturing and screening of adult liver fluke (Italian strain; n = 3/condition) was previously described. Dose response assays (40 µM, 13.3 µM and 4.4 µM) were conducted for MC014, MC042, MC035, MC055 and MC062 with motility scores recorded at 24, 48 and 72 h (Table S6).

Data set [5] in a line: MTT cell viability assay on MDBK cells. The data set is classed as cell-based, bovine. As to conditions: bovine, MDBK cells (Madin–Darby bovine kidney); MDBK cells, MTT, 24 h exposure; read-out: CC50 with 95% CI on MDBK cells (cytotoxicity). As for the experimental part:
MTT cell viability assays were performed on Madin–Darby bovine kidney (MDBK cells) for the five selected hederagenin derivatives (MC014, MC035, MC042, MC055 and MC062) using final concentrations of 100 μM, 75 μM, 50 μM, 25 μM, 10 μM, 5 μM and 1 μM (in 1% DMSO). Negative (1% v/v Triton X-100, Sigma-Aldrich, UK) and positive (1% v/v DMSO or media only) controls were included. The protocol was followed as previously described. Absolute EC50 values were calculated from the corrected absorbance of replicates by non-linear regression, after log transformation of concentrations and data normalization (where DMSO values represents 0% inhibition and TX-100 values represent 100% inhibition) using GrapPad Prism 8.

Molecules are shown by their SMILES. pEC50: −log10 of the molar value. Values joined by “and” are separate entries in the source; they are usually repeats but may differ in a detail not shown here. Equal values may be shown once. Read-outs that look alike come from different tables or passages of the source.

As to `C[C@@H]1O[C@@H](O[C@H]2[C@H](O[C@H]3CC[C@@]4(C)[C@@H](CC[C@]5(C)[C@@H]4CC=C4[C@@H]6CC(C)(C)CC[C@]6(C(=O)O)CC[C@]45C)[C@]3(C)CO)OC[C@H](O)[C@@H]2O)[C@H](O)[C@H](O)[C@H]1O` [α-Hederin], the “Activity against F. hepatica, in words” value in the data set on F. hepatica is “lethal activity”.
Turning to `CC1(C)CC[C@]2(NC(=O)N3CCOCC3)CC[C@]3(C)C(=CCC4[C@@]5(C)CC[C@@H]6OC(C)(C)OC[C@@]6(C)C5CC[C@]43C)C2C1` (stereo partly drawn) [MC042, N-((4aR,6aR,6bS,8aS,14bR,16aS)-2,2,4a,6a,6b,11,11,14b-Octamethyl-4a,5,6,6a,6b,7,8,9,10,11,12,12a, 14,14a,14b,15,16,16a-octadecahydro-4H-piceno[3,4-d][1,3]dioxin-8a(4bH)-yl)-morpholine-4-carboxamide], the “Average motility of 25 NEJs with 95% CI, 24 hours” value in data set [1] (24 h, motility score 1 good/normal to 5 no movement) was 5.00 (5.0;5.0). Further, the “Average phenotype of 25 NEJs with 95% CI, 24 hours” value in data set [1] (24 h, ultrastructure score 1 normal to 6 dead or dissolved) is 6.00 (6.0;6.0). Besides, in data set [1] (48 h, motility score 1 good/normal to 5 no movement), the “Average motility of 25 NEJs with 95% CI, 48 hours” value is given as 5.00 (5.0;5.0). The “Average phenotype of 25 NEJs with 95% CI, 48 hours” value in data set [1] (48 h, ultrastructure score 1 normal to 6 dead or dissolved) was 6.00 (6.0;6.0). For the same compound, the “Average motility of 25 NEJs with 95% CI, 72 hours” value in data set [1] (72 h, motility score 1 good/normal to 5 no movement) is given as 5.00 (5.0;5.0). Moreover, in data set [1] (72 h, ultrastructure score 1 normal to 6 dead or dissolved), the “Average phenotype of 25 NEJs with 95% CI, 72 hours” value is 6.00 (6.0;6.0). In addition, the “Activity against NEJs (first screen), in words” value in data set [1] (72 h co-culture) is “maximal alterations to both phenotype/ultrastructure and motility”. In addition, in data set [2] (72 h), the “Effect on wild strain adult fluke motility, in words” value was “no motility after 72 h”. Besides, the “Average motility of 4 parasites with 95% CI at 72 hour time point” value is listed as 6.00 (6.0;6.0) in data set [2] (wild strain adult flukes, score 1 good/normal to 6 no movement or dead) and 5.00 (5.0;5.0) in data set [3] (40 µM, 72 h, immature flukes, score 1 to 5). Moreover, the “Average motility of 2 parasites treated with 4.4 µM, 24 hours” value in data set [3] (4.4 µM, 24 h, immature flukes, dose response, score 1 to 5) is reported as 4.00 (4.0;4.0). Besides, the “Average motility of 2 parasites treated with 4.4 µM, 48 hours” value in data set [3] (4.4 µM, 48 h, immature flukes, dose response, score 1 to 5) is given as 5.00 (5.0; 5.0). The “Average motility of 2 parasites treated with 4.4 µM, 72 hours” value in data set [3] (4.4 µM, 72 h, immature flukes, dose response, score 1 to 5) is on record as 5.00 (5.0; 5.0). Also, the “Average motility of 2 parasites treated with 13.3 µM, 24 hours” value in data set [3] (13.3 µM, 24 h, immature flukes, dose response, score 1 to 5) is on record as 4.00 (4.0;4.0). In addition, in data set [3] (13.3 µM, 48 h, immature flukes, dose response, score 1 to 5), the “Average motility of 2 parasites treated with 13.3 µM, 48 hours” value is 5.00 (5.0; 5.0). The “Average motility of 2 parasites treated with 13.3 µM, 72 hours” value in data set [3] (13.3 µM, 72 h, immature flukes, dose response, score 1 to 5) was 5.00 (5.0; 5.0). Moreover, the “Average motility of 2 parasites treated with 40 µM, 24 hours” value in data set [3] (40 µM, 24 h, immature flukes, dose response, score 1 to 5) was 5.00 (5.0;5.0). Moreover, the “Average motility of 4 parasites with 95% CI at 24 hour time point” value in data set [3] (40 µM, 24 h, immature flukes, score 1 normal to 5 no movement or death) is 4.75 (4.2;5.2). Also, in data set [3] (40 µM, 48 h, immature flukes, dose response, score 1 to 5), the “Average motility of 2 parasites treated with 40 µM, 48 hours” value is 5.00 (5.0;5.0). The “Average motility of 4 parasites with 95% CI at 48 hour time point” value in data set [3] (40 µM, 48 h, immature flukes, score 1 to 5) was 5.00 (5.0;5.0). Also, the “Average motility of 2 parasites treated with 40 µM, 72 hours” value in data set [3] (40 µM, 72 h, immature flukes, dose response, score 1 to 5) was 5.00 (5.0,5.0). In data set [3] (40 µM, by 72 h), the “Effect on immature fluke motility, in words” value is listed as “paralyzed the assayed immature flukes”. The “Selectivity Index (SI) on Immature Flukes SI=CC50/EC50, 24 hour” value in data set [3] (CC50 in MDBK cells / EC50 immature flukes, 24 h) is 44 and 44.37. Besides, the pEC50 is 5.97 in data set [3] (Fasciola hepatica, immature flukes, motility, 24 h exposure, read-out: EC50 with 95% CI on Immature Flukes (motility), 24 hour); 4.89 in data set [4] (24 h exposure, read-out: EC50 with 95% CI on Adult Flukes (motility), 24 hour); 5.15 in data set [4] (72 h, read-out: EC50 with 95% CI on Adult Flukes (motility), 72 hour). The “Average motility of 3 parasites treated with 4.4 µM, 24 hours” value in data set [4] (4.4 µM, 24 h, adult flukes Italian strain, score 1 to 6) was 1.00 (1.0;1.0). In data set [4] (4.4 µM, 48 h, adult flukes Italian strain, score 1 to 6), the “Average motility of 3 parasites treated with 4.4 µM, 48 hours” value is 2.00 (2.0; 2.0). Also, in data set [4] (4.4 µM, 72 h, adult flukes Italian strain, score 1 to 6), the “Average motility of 3 parasites treated with 4.4 µM, 72 hours” value is on record as 3.00 (3.0; 3.0). The “Effect on adult fluke (Italian strain) movement at lower concentrations, in words” value in data set [4] (13.3 μM and 4.4 μM, after 72 h, compared to DMSO 0.4%) is “impaired movement”. The “Average motility of 3 parasites treated with 13.3 µM, 24 hours” value in data set [4] (13.3 µM, 24 h, adult flukes Italian strain, score 1 to 6) is 3.66 (3.0;4.3). Also, in data set [4] (13.3 µM, 48 h, adult flukes Italian strain, score 1 to 6), the “Average motility of 3 parasites treated with 13.3 µM, 48 hours” value is on record as 4.00(4.0; 4.0). In addition, the “Average motility of 3 parasites treated with 13.3 µM, 72 hours” value in data set [4] (13.3 µM, 72 h, adult flukes Italian strain, score 1 to 6) is reported as 4.00 (4.0; 4.0). Moreover, in data set [4] (40 µM, 24 h, adult flukes Italian strain, score 1 to 6), the “Average motility of 3 parasites treated with 40 µM, 24 hours” value is 5.33 (4.6;5.9). In addition, in data set [4] (40 µM, 48 h, adult flukes Italian strain, score 1 to 6), the “Average motility of 3 parasites treated with 40 µM, 48 hours” value is recorded as 5.66 (5.0;6.3). Also, the “Average motility of 3 parasites treated with 40 µM, 72 hours” value in data set [4] (40 µM, 72 h, adult flukes Italian strain, score 1 to 6) is on record as 5.66 (5.0,6.3). For the same compound, the “Selectivity Index (SI) on Adult Flukes SI=CC50/EC50, 72 hour” value in data set [4] (CC50 in MDBK cells (24 h) / EC50 adult flukes 72 h) worked out at 6.64. Moreover, in data set [4] (CC50 in MDBK cells / EC50 adult flukes, 24 h), the “Selectivity Index (SI) on Adult Flukes SI=CC50/EC50, 24 hour” value was 4 and 3.64. Also, in data set [4] (dose response, MC042 statement at 40 μM after 72 h), the “Effect on adult fluke (Italian strain) movement, in words” value is reported as “two out of three adult flukes were completely immobilized”. In addition, the CC50 at 24 h in data set [5] amounted to 47.5 µM.
